Experimental data as given in patent US20020094522A1, “Means and methods for monitoring non-nucleoside reverse transcriptase inhibitor antiretroviral therapy and guiding therapeutic decisions in the treatment of HIV/AIDS” (priority 2000, published 2002).

Tested on: Y181C-RTV (HIV reverse transcriptase Y181C)
Experiment: Phenotypic susceptibility assay, Y181C-RTV
Assay type: cell-based, HIV-1
Excerpt: The resistance test vectors containing a functional luciferase gene cassette were constructed and host cells were transfected with the resistance test vector DNA. The resistant test vectors contained patient-derived reverse transcriptase and protease sequences that were either susceptible or resistant to the antiretroviral agents, such as nucleoside reverse transcriptase inhibitors, non-nucleoside reverse transcriptase inhibitors and protease inhibitors. The resistance test vector viral particles produced by transfecting the resistance test vector DNA into host cells, either in the presence or absence of protease inhibitors, were used to infect target host cells grown either in the absence of NRTI or NNRTI or in the presence of increasing concentrations of the drug. […] The IC50 values were determined by plotting percent drug inhibition vs. log10 drug concentration.
Host cells were seeded in 10-cm-diameter dishes and were transfected several days after plating with resistance test vector plasmid DNA and the envelope expression vector. […] HIV capsid protein (p24) levels in the harvested cell culture media were determined by an EIA method as described by the manufacturer (SIAC; Frederick, Md.). […] The inhibitory effect of the drug was determined using the following equation: […]

In the case of `O=C1Nc2ccc(Cl)cc2[C@@](C#CC2CC2)(C(F)(F)F)O1` [efavirenz], the “fold loss of susceptibility compared to wild type control RTV” value (Y181C-RTV, site directed mutant) was 4 fold and the “fold loss of susceptibility compared to wild type control RTV” value ({}) was 3 fold.
